Laboratory results as given in patent publication US7345070B2, “Peroxisome proliferator activated receptor agonists” (Eli Lilly and Company, priority 2000, dated 2008).

Experiments:
db/db mice = experiment: Evaluation of glucose levels in db/db mice; assay type: in vivo; conditions: Mus musculus, 168 h, 30 mg/kg oral gavage daily for 7 days, 100% = glucose not different from lean values, read-out: Glucose Normalisation
Experimental: Five week old male diabetic (db/db) mice [C57BlKs/j-m+/+ Lepr(db), Jackson Laboratory, Bar Harbor, Me.] or lean littermates (db+) were housed 6 per cage (10″×20″×8″ with aspen chip bedding) with food (Purina 5015) and water available at all times. After an acclimation period of 2 weeks, animals were individually identified by ear notches, weighed, and bled via the tail vein for determination of initial glucose levels. Blood was collected (100 μl) from unfasted animals by wrapping each mouse in a towel, cutting the tip of the tail with a scalpel, and milking blood from the tail into a heparinized capillary tube (Fisher) balanced on the edge of the bench. Sample was discharged into a heparinized microtainer with gel separator (VWR) and retained on ice. Plasma was obtained after centrifugation at 4° C. and glucose measured immediately. Remaining plasma was frozen until the completion of the experiment, when glucose and triglycerides were assayed in all samples. Animals were grouped based on initial glucose levels and body weights. Beginning the following morning, mice were dosed daily by oral gavage for 7 days using a 20 gauge, 1½″ curved disposable feeding needle. Treatments were test compounds (30 mg/kg), a positive control agent (30 mg/kg) or vehicle [1% carboxymethylcellulose (w/v)/0.25% Tween80 (w/v); 0.3 ml/mouse]. On day 7, mice were weighed and bled (tail vein) 3 hours after dosing. Twenty-four hours after the 7th dose (i.e., day 8), animals were bled again (tail vein). Samples obtained from conscious animals on days 0, 7 and 8 were assayed for glucose. After the 24 hour bleed, animals were weighed and dosed for the final time. Three hours after dosing on day 8, animals were anesthetized by inhalation of isoflurane and blood obtained via cardiac puncture (0.5-0.7 ml). Whole blood was transferred to serum separator tubes, chilled on ice and permitted to clot. Serum was obtained after centrifugation at 4° C. and frozen until analysis for compound levels. After sacrifice by cervical dislocation, the liver, heart and epididymal fat pads were excised and weighed.
The animals dosed with vehicle had average triglycerides values of 170-230 mg/dl, which were reduced by the positive PPARγ control (70-120 mg/dl with a mean reduction of 50%). Male db/db mice were hyperglycemic (average glucose of 680-730 mg/dl on the 7th day of treatment), while lean animals had average glucose levels between 190-230 mg/dl.
Glucose was measured […] using commercially purchased reagents (Sigma #315-500). According to the manufacturers, the procedures were modified from published work (McGowan, M. W., Artiss, J. D., Strandbergh, D. R. & Zak, B. Clin Chem, 20:470-5 (1974) and Keston, A. Specific colorimetric enzymatic analytical reagents for glucose. Abstract of papers 129th Meeting ACS, 31C (1956).); and depend on the release of a mole of hydrogen peroxide for each mole of analyte, coupled with a color reaction first described by Trinder (Trinder, P. Determination of glucose in blood using glucose oxidase with an alternative oxygen acceptor. Ann Clin Biochem, 6:24 (1969)). The absorbance of the dye produced is linearly related to the analyte in the sample. The assays were further modified in our laboratory for use in a 96 well format. Standards (Sigma #339-11, Sigma #16-11, and Sigma #CC0534 for glucose, triglycerides and total cholesterol, respectively), quality control plasma (Sigma # A2034), and samples (2 or 5 μl/well) were measured in duplicate using 200 μl of reagent. An additional aliquot of sample, pipetted to a third well and diluted in 200 μl water, provided a blank for each specimen. Plates were incubated at room temperature (18, 15, and 10 minutes for glucose, triglycerides and total cholesterol, respectively) on a plate shaker (DPC Micormix 5) and absorbance read at 500 nm (glucose and total cholesterol) or 540 nm (triglycerides) on a plate reader (Wallac Victor 1420). […]

HuapoAI transgenic mice = experiment: Evaluation of triglyceride and cholesterol level in HuapoAI transgenic mice; assay type: in vivo; conditions: Mus musculus, 168 h, human apoAI transgenic mice, 30 mg/kg oral gavage daily for 7 days; for change in vivo at 30 mg/kg: FPLC area under the curve, over mice receiving vehicle, read-out: % HDLc Increase; for inhibition in vivo at 30 mg/kg: serum 3 h after dosing, read-out: Reduction in Triglyceride Serum Level
Experimental: After an acclimation period of 2 weeks, animals were individually identified by ear notches, weighed, and assigned to groups based on body weight. Beginning the following morning, mice were dosed daily by oral gavage for 7 days using a 20 gauge, 1½″ curved disposable feeding needle (Popper & Sons). […] Prior to termination on day 7, mice were weighed and dosed. Three hours after dosing, animals were anesthetized by inhalation of isoflurane (2-4%; Abbott Laboratories, Chicago, Ill.) and blood obtained via cardiac puncture (0.7-1.0 ml). Whole blood was transferred to serum separator tubes (Vacutainer SST), chilled on ice, and permitted to clot. Serum was obtained after centrifugation at 4° C. and frozen until analysis for triglycerides, total cholesterol, compound levels, and serum lipoprotein profile by fast protein liquid chromatography (FPLC) coupled to an inline detection system. After sacrifice by cervical dislocation, the liver, heart and epididymal fat pads were excised and weighed.
The absorbance of the dye produced is linearly related to the analyte in the sample. The assays were further modified in our laboratory for use in a 96 well format. […] An additional aliquot of sample, pipetted to a third well and diluted in 200 μl water, provided a blank for each specimen. […] Sample absorbances were compared to a standard curve (100-800, 10-500, and 100-400 mg/dl for glucose, triglycerides and total cholesterol, respectively). […] All samples from an experiment were assayed at the same time to minimize inter-assay variability.
Serum lipoproteins were separated and cholesterol quantitated with an in-line detection system. Sample was applied to a Superose® 6 HR 10/30 size exclusion column (Amersham Pharmacia Biotech) and eluted with phosphate buffered saline-EDTA at 0.5 ml/min. […] The change in voltage corresponding to change in cholesterol concentration was plotted vs time and the area under the curve corresponding to the elution of VLDL, LDL and HDL was calculated using Perkin Elmer Turbochrome software.

Row | SMILES | inhibition in vivo at 30 mg/kg (db/db mice) [%] | change in vivo at 30 mg/kg (HuapoAI transgenic mice) [%] | inhibition in vivo at 30 mg/kg (HuapoAI transgenic mice) [%]
1 | Cc1oc(-c2cccc(Br)c2)nc1CCOc1ccc(CC(C)(Oc2ccccc2)C(=O)O)cc1 (stereo not drawn) [Example 8, 3-(4-{2-[2-(3-Bromophenyl)-5-methyloxazol-4-yl]ethoxy}phenyl)-2-methyl-2-phenoxypropionic acid] | 97 | 34 | 
2 | Cc1oc(C2(C)CCCCC2)nc1CCOc1ccc(CC(C)(Oc2ccccc2)C(=O)O)cc1 (stereo not drawn) [Example 9, 2-Methyl-3-(4-{2-[5-methyl-2-(1-methylcyclohexyl)oxazol-4-yl]ethoxy}phenyl)-2-phenoxypropionic acid] | 95 | 123 | 19.8
3 | Cc1oc(-c2cccs2)nc1CCOc1ccc(CC(C)(Oc2ccc(C(C)(C)C)cc2)C(=O)O)cc1 (stereo not drawn) [Example 17, 2-Methyl-3-{4-[2-(5-methyl-2-thiophen-2-yl-oxazol-4-yl)-ethoxy]-phenyl}-2-(4-tert-butylphenoxy)-propionic acid] | 112 | 119 | 78.7
4 | Cc1oc(C2CCCCC2)nc1CCOc1ccc(CC(C)(Oc2ccc(C(C)(C)C)cc2)C(=O)O)cc1 (stereo not drawn) [Example 18, 2-Methyl-3-(4-{2-[5-methyl-2-cyclohexylyl-oxazol-4-yl]-ethoxy}-phenyl)-2-(4-tert-butylphenoxy)-propionic acid] | 110 | 141 | 69
5 | COc1ccc(OC(C)(Cc2ccc(OCCc3nc(-c4cccs4)oc3C)cc2)C(=O)O)cc1 (stereo not drawn) [Example 19, 2-Methyl-3-{4-[2-(5-methyl-2-thiophen-2-yl-oxazol-4-yl)-ethoxy]-phenyl}-2-(4-methoxyphenoxy)-propionic acid] | 95 | 89 | 40
6 | Cc1oc(-c2cccs2)nc1CCOc1ccc(CC(C)(Oc2cccc(F)c2)C(=O)O)cc1 (stereo not drawn) [Example 22, 2-(3-Fluoro-phenoxy)-2-methyl-3-{4-[2-(5-methyl-2-thiophen-2-yl-oxazol-4-yl)-ethoxy]-phenyl}-propionic acid] | 85 | 29 | 19.5
7 | Cc1oc(C2CCCCC2)nc1CCOc1ccc(CC(C)(Oc2cccc(F)c2)C(=O)O)cc1 (stereo not drawn) [Example 23, 2-(3-Fluoro-phenoxy)-2-methyl-3-{4-[2-(5-methyl-2-cyclohexyl-oxazol-4-yl)-ethoxy]-phenyl}-propionic acid] | 97 | 54 | 52.5
8 | Cc1oc(-c2cccs2)nc1CCOc1ccc(CC(C)(Oc2cccc(C(C)(C)C)c2)C(=O)O)cc1 (stereo not drawn) [Example 25, 2-(3-tert-Butyl-phenoxy)-2-methyl-3-{4-[2-(5-methyl-2-thiophen-2-yl-oxazol-4-yl)-ethoxy]-phenyl}-propionic acid] | 73 | 8 | 35.5
9 | Cc1oc(-c2cccs2)nc1CCOc1ccc(CC(C)(Oc2ccccc2F)C(=O)O)cc1 (stereo not drawn) [Example 27, 2-(2-Fluoro-phenoxy)-2-methyl-3-{4-[2-(5-methyl-2-thiophen-2-yl-oxazol-4-yl)-ethoxy]-phenyl}-propionic acid] | 86 | 49 | 36.8
10 | Cc1oc(-c2ccccc2)nc1CCOc1ccc(CC(C)(Oc2ccc(Cl)cc2)C(=O)O)cc1 (stereo not drawn) [Example 29, 2-(4-Chloro-phenoxy)-2-methyl-3-{4-[2-(5-methyl-2-phenyl-oxazol-4-yl)-ethoxy]-phenyl}-propionic acid] | 86 | 78 | 
11 | Cc1oc(C2CCCCC2)nc1CCOc1ccc(CC(C)(Oc2ccc(C3CCCCC3)cc2)C(=O)O)cc1 (stereo not drawn) [Example 34, 3-{4-[2-(2-Cyclohexyl-5-methyl-oxazol-4-yl)-ethoxy]-phenyl}-2-(4-cyclohexyl-phenoxy)-2-methyl-propionic acid] | 80 | 95 | 57.1
12 | Cc1ccc(OC(C)(Cc2ccc(OCCc3nc(C4CCCCC4)oc3C)cc2)C(=O)O)cc1C (stereo not drawn) [Example 35, 3-{4-[2-(2-Cyclohexyl-5-methyl-oxazol-4-yl)-ethoxy]-phenyl}-2-(3,4-dimethyl-phenoxy)-2-methyl-propionic acid] | 84 | 77 | 32.3
13 | Cc1ccc(OC(C)(Cc2ccc(OCCc3nc(-c4cccs4)oc3C)cc2)C(=O)O)cc1C (stereo not drawn) [Example 36, 2-(3,4-Dimethyl-phenoxy)-2-methyl-3-{4-[2-(5-methyl-2-thiophen-2-yl-oxazol-4-yl)-ethoxy]-phenyl}-propionic acid] | 92 | 30 | 23
14 | Cc1ccc(OC(C)(Cc2ccc(OCCc3nc(-c4cccs4)oc3C)cc2)C(=O)O)cc1 (stereo not drawn) [Example 40, 2-Methyl-3-{4-[2-(5-methyl-2-thiophen-2-yl-oxazol-4-yl)-ethoxy]-phenyl}-2-p-tolyloxy-propionic acid] | 103 | 131 | 77.6
15 | Cc1ccc(OC(C)(Cc2ccc(OCCc3nc(C4CCCCC4)oc3C)cc2)C(=O)O)cc1 (stereo not drawn) [Example 41, 3-{4-[2-(2-Cyclohexyl-5-methyl-oxazol-4-yl)-ethoxy]-phenyl}-2-methyl-2-p-tolyloxy-propionic acid] | 101 | 96 | 57.8
16 | Cc1oc(C2CCCCC2)nc1CCOc1ccc(CC(C)(Oc2ccc(OC(F)(F)F)cc2)C(=O)O)cc1 (stereo not drawn) [Example 44, 3-{4-[2-(2-Cyclohexyl-5-methyl-oxazol-4-yl)-ethoxy]-phenyl}-2-methyl-2-(4-trifluoromethoxy-phenoxy)-propionic acid] | 83 | 151 | 
17 | Cc1oc(-c2cccs2)nc1CCOc1ccc(CC(C)(Oc2ccc(C(F)(F)F)cc2)C(=O)O)cc1 (stereo not drawn) [Example 51, 2-Methyl-3-{4-[2-(5-methyl-2-thiophen-2-yl-oxazol-4-yl)-ethoxy]-phenyl}-2-(4-trifluoromethyl-phenoxy)-propionic acid] | 88 | 122 | 72.8
